Laboratory results published in patent publication US9340590B2 (priority 2011, dated 2016).
Positions of bridges follow the written chain, without caps; N, C: chain ends. Non-standard residues stand in square brackets, D forms with d. Residues, ends and D or L forms follow the SMILES beside them. Pra = C#CC[C@H](N)C(=O)O; Nva = CCC[C@H](N)C(=O)O; Abu = CC[C@H](N)C(=O)O

How the values were obtained:
Assay in all cases: cell-based
hNav1.5 = hNav1.5 (Homo sapiens, UniProt Q14524); details: IonWorks Quattro, use-dependent block, hNav1.5; read-out: IWQ Use Nav1.5
hNav1.7 = hNav1.7 (Homo sapiens, UniProt Q15858); format: cell-based; details: for IC50: IonWorks Quattro, use-dependent block, hNav1.7, read-out: IWQ Use Nav1.7
hNav1.4 = hNav1.4 (Homo sapiens, UniProt P35499); details: IonWorks Quattro, use-dependent block, hNav1.4; read-out: IWQ Use Nav1.4
Sequence of hNav1.4 (P35499 whole entry, looked up): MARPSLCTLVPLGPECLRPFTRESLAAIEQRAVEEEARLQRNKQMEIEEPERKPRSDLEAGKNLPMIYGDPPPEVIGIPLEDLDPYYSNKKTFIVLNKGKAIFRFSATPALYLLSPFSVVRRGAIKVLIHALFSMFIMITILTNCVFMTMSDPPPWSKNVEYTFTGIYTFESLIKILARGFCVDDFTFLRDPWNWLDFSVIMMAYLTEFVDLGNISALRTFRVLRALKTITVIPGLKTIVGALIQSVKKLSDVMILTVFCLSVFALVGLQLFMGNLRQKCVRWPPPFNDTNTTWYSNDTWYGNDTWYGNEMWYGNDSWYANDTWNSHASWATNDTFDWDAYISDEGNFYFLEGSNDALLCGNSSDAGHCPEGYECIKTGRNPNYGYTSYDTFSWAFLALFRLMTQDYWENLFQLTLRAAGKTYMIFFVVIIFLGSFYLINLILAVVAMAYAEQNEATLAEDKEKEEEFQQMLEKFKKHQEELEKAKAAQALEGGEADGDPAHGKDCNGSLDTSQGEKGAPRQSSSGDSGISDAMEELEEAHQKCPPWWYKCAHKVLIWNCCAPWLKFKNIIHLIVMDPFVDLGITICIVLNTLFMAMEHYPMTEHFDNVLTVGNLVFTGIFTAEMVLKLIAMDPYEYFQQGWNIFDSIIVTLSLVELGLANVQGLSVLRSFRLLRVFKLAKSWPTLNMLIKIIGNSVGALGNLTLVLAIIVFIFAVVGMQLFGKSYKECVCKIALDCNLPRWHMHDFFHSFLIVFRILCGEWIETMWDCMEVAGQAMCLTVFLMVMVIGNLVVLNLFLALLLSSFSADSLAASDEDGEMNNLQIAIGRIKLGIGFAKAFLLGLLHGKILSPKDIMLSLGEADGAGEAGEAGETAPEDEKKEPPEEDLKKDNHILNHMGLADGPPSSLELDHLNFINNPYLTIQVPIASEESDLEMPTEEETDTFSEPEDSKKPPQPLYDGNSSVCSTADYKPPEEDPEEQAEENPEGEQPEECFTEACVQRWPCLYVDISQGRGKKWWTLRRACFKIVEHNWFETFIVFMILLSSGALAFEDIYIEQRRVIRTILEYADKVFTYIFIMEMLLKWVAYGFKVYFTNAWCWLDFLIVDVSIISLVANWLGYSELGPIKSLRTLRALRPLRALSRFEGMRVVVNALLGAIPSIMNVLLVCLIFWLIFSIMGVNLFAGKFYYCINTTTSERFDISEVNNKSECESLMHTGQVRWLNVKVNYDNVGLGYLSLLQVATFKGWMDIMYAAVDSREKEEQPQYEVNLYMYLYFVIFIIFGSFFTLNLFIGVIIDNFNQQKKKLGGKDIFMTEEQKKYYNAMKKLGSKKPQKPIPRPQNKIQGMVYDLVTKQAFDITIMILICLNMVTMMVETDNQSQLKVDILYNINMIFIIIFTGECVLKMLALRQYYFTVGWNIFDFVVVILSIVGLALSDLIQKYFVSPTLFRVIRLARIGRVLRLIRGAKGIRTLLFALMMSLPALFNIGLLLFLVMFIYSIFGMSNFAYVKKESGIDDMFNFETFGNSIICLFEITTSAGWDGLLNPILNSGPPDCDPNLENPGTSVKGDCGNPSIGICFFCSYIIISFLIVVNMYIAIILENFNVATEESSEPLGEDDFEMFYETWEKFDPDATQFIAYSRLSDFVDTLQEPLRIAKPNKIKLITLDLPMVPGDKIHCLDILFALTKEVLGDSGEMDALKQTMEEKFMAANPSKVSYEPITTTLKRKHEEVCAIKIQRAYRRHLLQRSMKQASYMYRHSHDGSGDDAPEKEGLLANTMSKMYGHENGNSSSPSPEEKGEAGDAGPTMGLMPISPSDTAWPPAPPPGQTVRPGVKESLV

hNav1.3 = hNav1.3 (Homo sapiens, UniProt Q9NY46); details: IonWorks Quattro, use-dependent block, hNav1.3; read-out: IWQ Use Nav1.3
Sequence of hNav1.3 (Q9NY46 whole entry, looked up): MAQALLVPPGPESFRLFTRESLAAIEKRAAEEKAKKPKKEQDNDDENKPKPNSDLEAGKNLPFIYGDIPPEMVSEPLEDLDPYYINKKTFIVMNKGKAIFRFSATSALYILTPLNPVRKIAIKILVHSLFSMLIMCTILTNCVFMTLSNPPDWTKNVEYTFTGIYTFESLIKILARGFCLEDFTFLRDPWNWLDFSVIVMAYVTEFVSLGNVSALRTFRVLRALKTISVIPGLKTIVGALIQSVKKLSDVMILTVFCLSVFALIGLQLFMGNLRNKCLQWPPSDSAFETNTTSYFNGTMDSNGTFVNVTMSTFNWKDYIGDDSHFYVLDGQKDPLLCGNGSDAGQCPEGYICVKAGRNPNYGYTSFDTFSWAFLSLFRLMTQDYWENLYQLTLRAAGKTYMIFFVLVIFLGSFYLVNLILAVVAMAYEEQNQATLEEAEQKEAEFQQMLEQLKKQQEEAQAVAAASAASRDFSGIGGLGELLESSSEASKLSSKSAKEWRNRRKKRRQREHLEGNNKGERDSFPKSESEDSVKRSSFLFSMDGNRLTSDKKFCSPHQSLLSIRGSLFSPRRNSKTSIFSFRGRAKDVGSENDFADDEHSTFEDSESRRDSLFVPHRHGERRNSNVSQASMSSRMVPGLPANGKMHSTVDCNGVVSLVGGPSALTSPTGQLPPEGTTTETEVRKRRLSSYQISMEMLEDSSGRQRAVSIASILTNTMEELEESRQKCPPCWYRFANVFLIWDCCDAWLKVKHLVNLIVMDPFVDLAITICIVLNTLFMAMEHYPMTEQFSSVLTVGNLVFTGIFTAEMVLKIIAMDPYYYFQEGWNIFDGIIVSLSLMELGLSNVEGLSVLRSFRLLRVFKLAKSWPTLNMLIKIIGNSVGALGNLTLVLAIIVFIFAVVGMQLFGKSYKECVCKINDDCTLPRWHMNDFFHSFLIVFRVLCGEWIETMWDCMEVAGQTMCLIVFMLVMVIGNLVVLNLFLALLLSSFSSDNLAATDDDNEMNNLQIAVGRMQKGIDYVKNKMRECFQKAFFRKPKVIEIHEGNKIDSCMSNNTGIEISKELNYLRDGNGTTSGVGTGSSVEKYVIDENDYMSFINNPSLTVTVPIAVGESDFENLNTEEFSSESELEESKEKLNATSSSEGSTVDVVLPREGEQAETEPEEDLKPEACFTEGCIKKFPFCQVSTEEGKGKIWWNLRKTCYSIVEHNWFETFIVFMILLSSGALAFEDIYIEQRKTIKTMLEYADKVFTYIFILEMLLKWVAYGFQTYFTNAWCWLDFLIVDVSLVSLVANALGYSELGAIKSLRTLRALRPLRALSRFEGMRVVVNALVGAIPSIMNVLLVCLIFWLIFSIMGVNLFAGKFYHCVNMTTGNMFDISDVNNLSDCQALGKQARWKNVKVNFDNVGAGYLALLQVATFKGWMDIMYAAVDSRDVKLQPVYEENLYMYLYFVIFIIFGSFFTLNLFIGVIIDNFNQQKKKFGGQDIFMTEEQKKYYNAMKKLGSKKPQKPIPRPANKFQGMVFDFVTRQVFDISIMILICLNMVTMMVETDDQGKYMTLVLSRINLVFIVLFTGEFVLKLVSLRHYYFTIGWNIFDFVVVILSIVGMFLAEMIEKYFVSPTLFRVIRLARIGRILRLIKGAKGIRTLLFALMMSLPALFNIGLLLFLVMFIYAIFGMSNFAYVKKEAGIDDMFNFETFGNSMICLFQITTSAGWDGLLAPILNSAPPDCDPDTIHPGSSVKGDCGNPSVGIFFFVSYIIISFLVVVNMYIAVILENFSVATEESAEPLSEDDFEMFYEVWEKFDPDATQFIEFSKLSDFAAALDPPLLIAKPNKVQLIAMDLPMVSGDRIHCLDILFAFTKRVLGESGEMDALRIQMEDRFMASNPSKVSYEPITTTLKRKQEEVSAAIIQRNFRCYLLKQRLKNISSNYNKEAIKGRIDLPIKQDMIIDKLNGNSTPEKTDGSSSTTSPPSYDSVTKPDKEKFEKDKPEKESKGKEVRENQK

| Compound | IC50 (hNav1.5) | IC50 (hNav1.7) | IC50 (hNav1.4) | IC50 (hNav1.3) | Nav1.7/Nav1.3 (hNav1.7; ratio of IWQ Use values Nav1.7 to Nav1.3) | Nav1.7/Nav1.3 (hNav1.7; ratio of IWQ Use values, Nav1.7 over Nav1.3) |
| --- | --- | --- | --- | --- | --- | --- |
| CCC[C@H](NC(=O)CNC(=O)[C@H](CC(C)C)NC(=O)[C@H](CC)NC(=O)[C@@H](N)CC(=O)O)C(=O)N[C@@H](CC(C)C)C(=O)N[C@@H](CCCNC(=N)N)C(=O)N[C@@H](CCCCN)C(=O)N[C@H]1CSSC[C@@H]2NC(=O)[C@H](C(C)C)NC(=O)[C@H](CC(C)C)NC(=O)[C@H](CC(N)=O)NC(=O)[C@@H]3CCCN3C(=O)[C@H](CCCNC(=N)N)NC(=O)[C@H](CC)NC(=O)[C@H](CSSC[C@@H](C(=O)N[C@@H](CCCCN)C(=O)N[C@@H](Cc3ccc(O)cc3)C(=O)N[C@H](C(=O)N[C@@H](Cc3ccccc3)C(N)=O)C(C)C)NC(=O)[C@H](Cc3c[nH]c4ccccc34)NC(=O)[C@H](CCC(=O)O)NC(=O)[C@H](Cc3c[nH]cn3)NC(=O)[C@H]([C@@H](C)O)NC(=O)[C@H](CCCNC(=N)N)NC(=O)[C@H](CO)NC2=O)NC(=O)[C@H](CCCCN)NC(=O)[C@H](CC(=O)O)NC(=O)[C@H](CC(N)=O)NC(=O)[C@H](CC(=O)O)NC(=O)[C@@H]2CCCN2C(=O)[C@H]([C@@H](C)CC)NC1=O [compound 717] (H-D[Abu]LG[Nva]LRKCIPDNDKC[Abu]RPNLVCSRTHEWCKYVF-NH2; disulfide 9-23, 16-30) | > 50 µM | > 5 µM | > 50 µM | > 5 µM | – | – |
| CC[C@H](NC(=O)CNC(=O)[C@H](CC(C)C)NC(=O)[C@H](CC)NC(=O)[C@@H](N)CC(=O)O)C(=O)N[C@@H](CC(C)C)C(=O)N[C@@H](CCCNC(=N)N)C(=O)N[C@@H](CCCCN)C(=O)N[C@H]1CSSC[C@@H]2NC(=O)[C@H](C(C)C)NC(=O)[C@H](CC(C)C)NC(=O)[C@H](CC(N)=O)NC(=O)[C@@H]3CCCN3C(=O)[C@H](CCCNC(=N)N)NC(=O)[C@H](CC)NC(=O)[C@H](CSSC[C@@H](C(=O)N[C@@H](CCCCN)C(=O)N[C@@H](Cc3ccc(O)cc3)C(=O)N[C@H](C(=O)N[C@@H](Cc3ccccc3)C(N)=O)C(C)C)NC(=O)[C@H](Cc3c[nH]c4ccccc34)NC(=O)[C@H](CCC(=O)O)NC(=O)[C@H](Cc3c[nH]cn3)NC(=O)[C@H]([C@@H](C)O)NC(=O)[C@H](CCCNC(=N)N)NC(=O)[C@H](CO)NC2=O)NC(=O)[C@H](CCCCN)NC(=O)[C@H](CC(=O)O)NC(=O)[C@H](CC(N)=O)NC(=O)[C@H](CC(=O)O)NC(=O)[C@@H]2CCCN2C(=O)[C@H]([C@@H](C)CC)NC1=O [compound 718] (H-D[Abu]LG[Abu]LRKCIPDNDKC[Abu]RPNLVCSRTHEWCKYVF-NH2; disulfide 9-23, 16-30) | > 50 µM | 4.3 µM | > 50 µM | > 5 µM | – | – |
| CC[C@@H]1NC(=O)[C@@H]2CSSC[C@@H](C(=O)N[C@@H](CCCCN)C(=O)N[C@@H](Cc3ccc(O)cc3)C(=O)N[C@H](C(=O)N[C@@H](Cc3ccccc3)C(N)=O)C(C)C)NC(=O)[C@H](Cc3c[nH]c4ccccc34)NC(=O)[C@H](CCC(=O)O)NC(=O)[C@H](Cc3c[nH]cn3)NC(=O)[C@H]([C@@H](C)O)NC(=O)[C@H](CCCNC(=N)N)NC(=O)[C@H](CO)NC(=O)[C@H](CSSC[C@H](NC(=O)[C@H](CCCCN)NC(=O)[C@H](CCCNC(=N)N)NC(=O)[C@H](CC(C)C)NC(=O)[C@H](C)NC(=O)CNC(=O)[C@H](CC(C)C)NC(=O)[C@H](CC)NC(=O)[C@@H](N)CC(=O)O)C(=O)N[C@@H]([C@@H](C)CC)C(=O)N3CCC[C@H]3C(=O)N[C@@H](CC(=O)O)C(=O)N[C@@H](CC(N)=O)C(=O)N[C@@H](CC(=O)O)C(=O)N[C@@H](CCCCN)C(=O)N2)NC(=O)[C@H](C(C)C)NC(=O)[C@H](CC(C)C)NC(=O)[C@H](CC(N)=O)NC(=O)[C@@H]2CCCN2C(=O)[C@H](CCCNC(=N)N)NC1=O [compound 719] (H-D[Abu]LGALRKCIPDNDKC[Abu]RPNLVCSRTHEWCKYVF-NH2; disulfide 9-23, 16-30) | > 50 µM | 4.3 µM | > 50 µM | > 5 µM | – | – |
| CC[C@@H]1NC(=O)[C@@H]2CSSC[C@@H](C(=O)N[C@@H](CCCCN)C(=O)N[C@@H](Cc3ccc(O)cc3)C(=O)N[C@H](C(=O)N[C@@H](Cc3ccccc3)C(N)=O)C(C)C)NC(=O)[C@H](Cc3c[nH]c4ccccc34)NC(=O)[C@H](CCC(=O)O)NC(=O)[C@H](Cc3c[nH]cn3)NC(=O)[C@H]([C@@H](C)O)NC(=O)[C@H](CCCNC(=N)N)NC(=O)[C@H](CO)NC(=O)[C@H](CSSC[C@H](NC(=O)[C@H](CCCCN)NC(=O)[C@H](CCCNC(=N)N)NC(=O)[C@H](CC(C)C)NC(=O)[C@@H](NC(=O)CNC(=O)[C@H](CC(C)C)NC(=O)[C@H](CC)NC(=O)[C@@H](N)CC(=O)O)C(C)C)C(=O)N[C@@H]([C@@H](C)CC)C(=O)N3CCC[C@H]3C(=O)N[C@@H](CC(=O)O)C(=O)N[C@@H](CC(N)=O)C(=O)N[C@@H](CC(=O)O)C(=O)N[C@@H](CCCCN)C(=O)N2)NC(=O)[C@H](C(C)C)NC(=O)[C@H](CC(C)C)NC(=O)[C@H](CC(N)=O)NC(=O)[C@@H]2CCCN2C(=O)[C@H](CCCNC(=N)N)NC1=O [compound 720] (H-D[Abu]LGVLRKCIPDNDKC[Abu]RPNLVCSRTHEWCKYVF-NH2; disulfide 9-23, 16-30) | 33 µM | > 5 µM | > 50 µM | > 5 µM | – | – |
| C#CC[C@@H]1NC(=O)[C@H](CC(=O)O)NC(=O)[C@@H]2CCCN2C(=O)[C@H](CCC(=O)O)NC(=O)[C@@H]2CSSC[C@@H]3NC(=O)[C@H](C(C)C)NC(=O)[C@H](CC(C)C)NC(=O)[C@H](CC(N)=O)NC(=O)[C@@H]4CCCN4C(=O)[C@H](CCCNC(=N)N)NC(=O)[C@H](CSSC[C@H](NC(=O)[C@@H](N)CC(=O)O)C(=O)N[C@@H](CC(C)C)C(=O)NCC(=O)N[C@@H](C)C(=O)N[C@@H](CC(C)C)C(=O)N[C@@H](CCCNC(=N)N)C(=O)N[C@@H](CCCCN)C(=O)N2)NC(=O)[C@H](CSSC[C@@H](C(=O)N[C@@H](CCCCN)C(=O)N[C@@H](Cc2ccc(O)cc2)C(=O)N[C@H](C(=O)N[C@@H](Cc2ccccc2)C(N)=O)C(C)C)NC(=O)[C@H](Cc2c[nH]c4ccccc24)NC(=O)[C@H](CCCNC(=N)N)NC(=O)[C@H](Cc2c[nH]cn2)NC(=O)[C@H](CC(C)C)NC(=O)[C@H](CCCNC(=N)N)NC(=O)[C@H](CO)NC3=O)NC(=O)[C@H](CCCCN)NC(=O)[C@H](CC(=O)O)NC1=O [compound 800] (H-DCLGALRKCEPD[Pra]DKCCRPNLVCSRLHRWCKYVF-NH2; disulfide 2-17, 9-23, 16-30) | > 50 µM | 0.7 µM | > 50 µM | 1.4 µM | 0.5 | – |
| CC[C@H](C)[C@@H]1NC(=O)[C@@H]2CSSC[C@@H]3NC(=O)[C@H](C(C)C)NC(=O)[C@H](CC(C)C)NC(=O)[C@H](CC(N)=O)NC(=O)[C@@H]4CCCN4C(=O)[C@H](CCCNC(=N)N)NC(=O)[C@H](CSSC[C@H](NC(=O)[C@H](CC(=O)O)NC(=O)[C@H](CO)NC(=O)CN)C(=O)N[C@@H](CC(C)C)C(=O)NCC(=O)N[C@@H](C)C(=O)N[C@@H](CC(C)C)C(=O)N[C@@H](CCCNC(=N)N)C(=O)N[C@@H](CCCCN)C(=O)N2)NC(=O)[C@H](CSSC[C@@H](C(=O)N[C@@H](CCCCN)C(=O)N[C@@H](Cc2ccc(O)cc2)C(=O)N[C@H](C(=O)N[C@@H](Cc2ccccc2)C(=O)N[C@@H](Cc2c[nH]c4ccccc24)C(=O)O)C(C)C)NC(=O)[C@H](Cc2c[nH]c4ccccc24)NC(=O)[C@H](CCCNC(=N)N)NC(=O)[C@H](Cc2c[nH]cn2)NC(=O)[C@H]([C@@H](C)O)NC(=O)[C@H](CCCNC(=N)N)NC(=O)[C@H](CO)NC3=O)NC(=O)[C@H](CCCCN)NC(=O)[C@H](CC(=O)O)NC(=O)[C@H](CC(N)=O)NC(=O)[C@H](CC(=O)O)NC(=O)[C@@H]2CCCN2C1=O [compound 816] (H-GSDCLGALRKCIPDNDKCCRPNLVCSRTHRWCKYVFW-OH; disulfide 4-19, 11-25, 18-32) | > 5 µM | > 5 µM | > 5 µM | > 5 µM | – | – |
| CC[C@H](C)[C@@H]1NC(=O)[C@@H]2CSSC[C@@H]3NC(=O)[C@H](C(C)C)NC(=O)[C@H](CC(C)C)NC(=O)[C@H](CC(N)=O)NC(=O)[C@@H]4CCCN4C(=O)[C@H](CCCNC(=N)N)NC(=O)[C@H](CSSC[C@H](NC(=O)[C@H](CC(=O)O)NC(=O)[C@H](CO)NC(=O)CN)C(=O)N[C@@H](CC(C)C)C(=O)NCC(=O)N[C@@H](C)C(=O)N[C@@H](CC(C)C)C(=O)N[C@@H](CCCNC(=N)N)C(=O)N[C@@H](CCCCN)C(=O)N2)NC(=O)[C@H](CSSC[C@@H](C(=O)N[C@@H](CCCCN)C(=O)N[C@@H](Cc2ccc(O)cc2)C(=O)N[C@H](C(=O)N[C@@H](Cc2ccccc2)C(=O)N[C@@H](Cc2ccccc2)C(=O)O)C(C)C)NC(=O)[C@H](Cc2c[nH]c4ccccc24)NC(=O)[C@H](CCCNC(=N)N)NC(=O)[C@H](Cc2c[nH]cn2)NC(=O)[C@H]([C@@H](C)O)NC(=O)[C@H](CCCNC(=N)N)NC(=O)[C@H](CO)NC3=O)NC(=O)[C@H](CCCCN)NC(=O)[C@H](CC(=O)O)NC(=O)[C@H](CC(N)=O)NC(=O)[C@H](CC(=O)O)NC(=O)[C@@H]2CCCN2C1=O [compound 820] (H-GSDCLGALRKCIPDNDKCCRPNLVCSRTHRWCKYVFF-OH; disulfide 4-19, 11-25, 18-32) | > 5 µM | 0.5 µM | > 5 µM | 0.5 µM | – | 1.0 |
